Results as given in the supplement of paper PMC12463676, “Small-molecule dissolution of stress granules by redox modulation benefits ALS models” (Nature Chemical Biology, 2025).

Tests used:
lipoamide = compound: NC(=O)CCCCC1CCSS1 [lipoamide]; experiment: thermal stability z-score vs DMSO; higher = more thermally stabilized by treatment; settings: HeLa, lipoamide concentration 100 µM
Experimental: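 Cellular thermal proteome profiling in HeLa cells. Cells were treated with 100 µM lipoamide for 1 h, with or without 1 mM arsenate for a further 1 h, then heated to ten temperatures (37-66.3 °C), and soluble protein was quantified by TMT mass spectrometry relative to 0.1% DMSO controls. The thermal stability score (sum of log2 fold changes minus the abundance score) was transformed to a z-score; mean of n = 3 experiments.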

potassium arsenate = compound: O=[As]([O-])(O)O.[K+] [potassium arsenate]; experiment: as above; settings: HeLa; arsenate concentration 1 mM
Experimental: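 Cellular thermal proteome profiling in HeLa cells treated with 1 mM arsenate for 1 h (DMSO pretreatment), heated to ten temperatures (37-66.3 °C). Soluble protein was quantified by TMT mass spectrometry relative to DMSO controls; the thermal stability score was transformed to a z-score; mean of n = 3 experiments.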

[1] = arsenate co-treatment: 1 mM arsenate 1 h
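Note: each temperature applied for 3 min, abundance score taken as mean log2 fold change at the two lowest temperatures, z-score obtained by mean subtraction and division by SD.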

Sequence of UniProt Q8WUR7 (Q8WUR7 whole entry): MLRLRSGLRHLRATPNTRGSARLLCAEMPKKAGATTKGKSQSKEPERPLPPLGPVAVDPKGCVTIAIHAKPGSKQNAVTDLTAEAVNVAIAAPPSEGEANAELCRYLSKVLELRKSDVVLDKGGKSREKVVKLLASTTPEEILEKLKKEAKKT
Sequence of UniProt O95260 (O95260 whole entry): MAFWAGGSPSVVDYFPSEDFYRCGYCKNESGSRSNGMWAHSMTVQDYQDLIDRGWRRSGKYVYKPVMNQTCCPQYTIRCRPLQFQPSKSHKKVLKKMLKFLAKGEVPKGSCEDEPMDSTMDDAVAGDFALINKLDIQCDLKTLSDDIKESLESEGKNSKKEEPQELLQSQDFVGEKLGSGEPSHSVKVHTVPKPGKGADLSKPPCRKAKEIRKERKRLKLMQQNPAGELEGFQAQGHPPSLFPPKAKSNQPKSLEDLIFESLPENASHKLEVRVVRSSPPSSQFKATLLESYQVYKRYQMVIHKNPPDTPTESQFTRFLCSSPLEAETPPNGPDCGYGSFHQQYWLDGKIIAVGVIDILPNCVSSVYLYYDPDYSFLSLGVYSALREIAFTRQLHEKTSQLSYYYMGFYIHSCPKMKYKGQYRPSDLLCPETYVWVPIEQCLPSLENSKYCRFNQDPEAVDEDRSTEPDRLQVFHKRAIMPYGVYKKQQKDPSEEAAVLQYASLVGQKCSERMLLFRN
Sequence of UniProt Q5TC82 (Q5TC82 whole entry): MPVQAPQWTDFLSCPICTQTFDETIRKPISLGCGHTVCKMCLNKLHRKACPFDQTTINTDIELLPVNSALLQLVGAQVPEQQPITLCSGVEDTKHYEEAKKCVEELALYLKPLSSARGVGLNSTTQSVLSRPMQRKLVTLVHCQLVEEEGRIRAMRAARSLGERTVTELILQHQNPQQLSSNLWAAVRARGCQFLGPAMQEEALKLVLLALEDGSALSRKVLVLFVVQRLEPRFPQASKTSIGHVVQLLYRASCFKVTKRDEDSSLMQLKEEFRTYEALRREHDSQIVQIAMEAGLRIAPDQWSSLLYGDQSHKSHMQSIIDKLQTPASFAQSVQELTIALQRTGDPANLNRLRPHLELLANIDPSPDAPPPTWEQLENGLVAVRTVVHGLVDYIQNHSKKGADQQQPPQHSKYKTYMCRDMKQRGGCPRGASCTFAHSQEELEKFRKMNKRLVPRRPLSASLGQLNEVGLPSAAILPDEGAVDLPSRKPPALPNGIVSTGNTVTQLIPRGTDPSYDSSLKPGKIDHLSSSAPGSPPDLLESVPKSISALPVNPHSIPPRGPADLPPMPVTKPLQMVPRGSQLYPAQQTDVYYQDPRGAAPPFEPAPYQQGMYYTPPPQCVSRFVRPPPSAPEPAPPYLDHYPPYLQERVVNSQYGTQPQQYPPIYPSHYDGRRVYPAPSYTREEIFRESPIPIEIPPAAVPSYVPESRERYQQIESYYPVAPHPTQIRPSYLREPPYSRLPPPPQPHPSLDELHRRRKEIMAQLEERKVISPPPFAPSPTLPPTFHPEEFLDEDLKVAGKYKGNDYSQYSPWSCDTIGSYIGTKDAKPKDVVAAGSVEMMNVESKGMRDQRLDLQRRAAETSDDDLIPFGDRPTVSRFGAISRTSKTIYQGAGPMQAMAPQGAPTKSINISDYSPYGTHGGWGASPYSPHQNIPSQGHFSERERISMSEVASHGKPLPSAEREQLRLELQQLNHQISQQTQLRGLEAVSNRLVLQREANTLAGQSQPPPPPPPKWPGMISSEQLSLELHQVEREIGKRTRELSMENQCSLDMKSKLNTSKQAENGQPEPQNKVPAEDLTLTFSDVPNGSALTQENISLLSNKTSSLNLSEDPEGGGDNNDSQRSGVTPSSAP
Sequence of UniProt P36405 (P36405 whole entry): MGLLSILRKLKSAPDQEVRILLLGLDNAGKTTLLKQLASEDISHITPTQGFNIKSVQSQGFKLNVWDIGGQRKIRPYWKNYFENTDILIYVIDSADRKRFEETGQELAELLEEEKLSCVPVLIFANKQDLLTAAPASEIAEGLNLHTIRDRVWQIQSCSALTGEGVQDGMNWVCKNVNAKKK
Sequence of UniProt Q9Y5T5 (Q9Y5T5 whole entry, looked up): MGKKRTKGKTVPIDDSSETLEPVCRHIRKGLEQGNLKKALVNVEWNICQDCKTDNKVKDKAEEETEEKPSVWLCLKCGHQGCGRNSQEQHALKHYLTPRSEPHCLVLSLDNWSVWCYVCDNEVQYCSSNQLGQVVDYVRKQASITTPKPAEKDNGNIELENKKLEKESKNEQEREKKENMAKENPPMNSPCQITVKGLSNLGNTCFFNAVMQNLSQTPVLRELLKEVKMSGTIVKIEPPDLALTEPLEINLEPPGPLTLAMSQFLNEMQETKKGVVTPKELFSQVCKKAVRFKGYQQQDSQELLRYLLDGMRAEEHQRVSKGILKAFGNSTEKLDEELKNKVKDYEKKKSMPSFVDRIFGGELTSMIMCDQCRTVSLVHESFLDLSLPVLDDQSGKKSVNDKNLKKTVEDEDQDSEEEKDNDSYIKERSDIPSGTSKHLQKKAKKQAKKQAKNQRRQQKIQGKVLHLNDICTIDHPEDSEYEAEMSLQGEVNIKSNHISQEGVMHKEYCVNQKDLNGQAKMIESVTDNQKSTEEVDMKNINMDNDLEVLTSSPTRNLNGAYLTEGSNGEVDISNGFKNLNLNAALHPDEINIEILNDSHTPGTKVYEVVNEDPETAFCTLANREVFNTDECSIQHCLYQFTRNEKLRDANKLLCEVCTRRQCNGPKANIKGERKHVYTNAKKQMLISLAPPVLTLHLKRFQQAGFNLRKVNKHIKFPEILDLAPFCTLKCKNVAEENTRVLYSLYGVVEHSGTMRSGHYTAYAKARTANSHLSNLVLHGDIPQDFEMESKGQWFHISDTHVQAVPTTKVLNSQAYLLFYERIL
Sequence of UniProt Q9UPQ0 (Q9UPQ0 whole entry): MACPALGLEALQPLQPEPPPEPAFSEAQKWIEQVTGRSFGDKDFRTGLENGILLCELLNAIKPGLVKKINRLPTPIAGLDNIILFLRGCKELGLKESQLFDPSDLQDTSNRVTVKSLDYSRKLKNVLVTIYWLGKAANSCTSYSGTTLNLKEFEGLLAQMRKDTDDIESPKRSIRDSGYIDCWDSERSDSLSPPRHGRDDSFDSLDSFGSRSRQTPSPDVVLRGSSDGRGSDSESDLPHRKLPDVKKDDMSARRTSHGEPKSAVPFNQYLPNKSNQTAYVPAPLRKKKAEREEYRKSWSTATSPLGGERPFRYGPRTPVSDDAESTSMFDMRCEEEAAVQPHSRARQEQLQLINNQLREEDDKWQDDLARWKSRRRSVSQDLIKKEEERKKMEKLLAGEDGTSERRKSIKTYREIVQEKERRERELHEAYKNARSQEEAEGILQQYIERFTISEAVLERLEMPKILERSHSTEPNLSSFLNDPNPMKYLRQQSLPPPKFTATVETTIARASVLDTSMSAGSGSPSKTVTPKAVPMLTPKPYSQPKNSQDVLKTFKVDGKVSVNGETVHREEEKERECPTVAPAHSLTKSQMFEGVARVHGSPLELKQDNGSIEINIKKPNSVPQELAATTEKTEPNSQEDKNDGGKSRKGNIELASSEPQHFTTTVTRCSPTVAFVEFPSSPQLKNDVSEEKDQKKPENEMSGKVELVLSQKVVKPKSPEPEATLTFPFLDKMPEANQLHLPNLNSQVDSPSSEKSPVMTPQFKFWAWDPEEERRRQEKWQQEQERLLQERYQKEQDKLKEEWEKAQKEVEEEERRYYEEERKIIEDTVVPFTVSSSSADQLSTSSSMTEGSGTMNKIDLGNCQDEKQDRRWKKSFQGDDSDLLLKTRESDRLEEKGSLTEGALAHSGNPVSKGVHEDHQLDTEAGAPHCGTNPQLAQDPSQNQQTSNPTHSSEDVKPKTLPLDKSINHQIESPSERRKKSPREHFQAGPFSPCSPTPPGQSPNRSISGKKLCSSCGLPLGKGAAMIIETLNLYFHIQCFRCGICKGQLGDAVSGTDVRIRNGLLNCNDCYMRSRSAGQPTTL
Sequence of UniProt Q9P289 (Q9P289 whole entry, looked up): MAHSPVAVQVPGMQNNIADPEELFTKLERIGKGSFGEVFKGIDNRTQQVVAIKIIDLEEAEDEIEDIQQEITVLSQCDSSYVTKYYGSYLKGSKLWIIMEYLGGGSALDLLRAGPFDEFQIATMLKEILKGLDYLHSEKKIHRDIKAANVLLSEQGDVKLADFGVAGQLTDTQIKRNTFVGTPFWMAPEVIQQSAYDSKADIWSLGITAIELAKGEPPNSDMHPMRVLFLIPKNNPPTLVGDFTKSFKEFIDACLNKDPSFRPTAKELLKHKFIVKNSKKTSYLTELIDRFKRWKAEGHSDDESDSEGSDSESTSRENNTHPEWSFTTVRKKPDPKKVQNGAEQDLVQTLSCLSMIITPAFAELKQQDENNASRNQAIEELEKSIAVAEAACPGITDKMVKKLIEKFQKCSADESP
Sequence of UniProt Q9H4H8 (Q9H4H8 whole entry): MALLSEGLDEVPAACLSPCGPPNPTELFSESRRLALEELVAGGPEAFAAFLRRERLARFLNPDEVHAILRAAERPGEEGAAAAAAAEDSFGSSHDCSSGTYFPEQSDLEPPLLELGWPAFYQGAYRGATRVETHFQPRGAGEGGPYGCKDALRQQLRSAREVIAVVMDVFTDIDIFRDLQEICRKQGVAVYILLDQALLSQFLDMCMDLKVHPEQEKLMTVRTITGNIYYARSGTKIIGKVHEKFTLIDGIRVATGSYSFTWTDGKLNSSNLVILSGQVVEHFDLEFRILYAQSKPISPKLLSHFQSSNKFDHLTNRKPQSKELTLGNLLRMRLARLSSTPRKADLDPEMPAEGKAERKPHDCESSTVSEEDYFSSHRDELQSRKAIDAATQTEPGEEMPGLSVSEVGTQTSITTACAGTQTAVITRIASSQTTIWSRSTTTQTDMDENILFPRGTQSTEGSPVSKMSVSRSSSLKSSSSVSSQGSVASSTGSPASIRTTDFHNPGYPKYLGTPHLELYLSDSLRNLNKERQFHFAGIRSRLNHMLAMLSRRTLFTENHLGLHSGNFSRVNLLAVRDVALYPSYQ

Target | thermal stability z-score (lipoamide; [1]) | thermal stability z-score (lipoamide; arsenate co-treatment: none) | thermal stability z-score (potassium arsenate)
C15ORF40 (UniProt Q8WUR7) | 0.334 | -0.344 | -1.19
TECR (UniProt Q9NZ01) | -1.46 | -0.891 | -0.077
VPS51 (UniProt Q9UID3) | -0.0785 | 0.169 | -0.285
RC3H1 (UniProt Q5TC82) | -0.195 | -0.0428 | -0.351
ENGASE (UniProt Q8NFI3) | 0.198 | 0.101 | -0.36
GRSF1 (UniProt Q12849) | -0.892 | -0.354 | 0.26
MAN1A2 (UniProt O60476) | -0.432 | -0.498 | -0.352
MAPKAPK2 (UniProt P49137) | 0.451 | 0.459 | 0.48
ODC1 (UniProt P11926) | 0.0303 | 0.354 | 0.106
IKBIP (UniProt Q70UQ0) | -3.01 | -2.3 | -0.0459
TBC1D10A (UniProt Q9BXI6) | -0.00261 | -0.137 | 0.0768
LARP4 (UniProt Q71RC2) | -0.463 | -0.301 | -0.708
TMEM30A (UniProt Q9NV96) | -0.45 | -0.161 | -0.845
ARL3 (UniProt P36405) | -0.325 | -0.435 | -0.424
FKBP7 (UniProt Q9Y680) | -4.17 | -4.05 | -0.253
RABGGTB (UniProt P53611) | 0.508 | -0.0991 | 1.46
CAMK1D (UniProt Q8IU85) | -0.513 | -0.221 | 0.553
MRI1 (UniProt Q9BV20) | 0.156 | 0.0639 | -0.37
EEF1D (UniProt P29692) | 0.303 | 0.257 | -0.0726
LETMD1 (UniProt Q6P1Q0) | 0.197 | -0.0626 | 0.0642
TTLL12 (UniProt Q14166) | 1.14 | 0.696 | -0.427
USP7 (UniProt Q93009) | 0.299 | 0.123 | -0.483
SMCHD1 (UniProt A6NHR9) | -0.13 | -0.0876 | -0.528
EIF3I (UniProt Q13347) | 0.544 | 0.0305 | -0.363
TMEM11 (UniProt P17152) | -0.251 | -0.145 | -1.1
STK26 (UniProt Q9P289) | 0.681 | 1.24 | 1.4
WDR7 (UniProt Q9Y4E6) | -0.338 | 0.149 | -0.351
RPL10 (UniProt P27635) | 0.0934 | -0.15 | -0.781

Target | thermal stability z-score (lipoamide; [1]) | thermal stability z-score (lipoamide; arsenate co-treatment: none) | thermal stability z-score (potassium arsenate)
HNRNPK (UniProt P61978) | -0.316 | 0.559 | -1.69
SIRT2 (UniProt Q8IXJ6) | 0.594 | 0.653 | -0.31
NHS (UniProt Q6T4R5) | -0.604 | 0.0609 | -0.851
FAM83D (UniProt Q9H4H8) | -0.472 | -0.432 | 0.641
ASPHD1 (UniProt Q5U4P2) | -0.334 | 0.214 | -0.276
ASAP2 (UniProt O43150) | -0.641 | -0.527 | -0.394
TYMS (UniProt P04818) | 1.42 | 0.818 | 14
CYB5R3 (UniProt P00387) | 1.07 | -0.079 | -0.832
SESN2 (UniProt P58004) | -0.134 | 0.162 | -0.132
USP16 (UniProt Q9Y5T5) | -0.544 | -0.649 | 0.229
TNFAIP1 (UniProt Q13829) | -0.526 | -0.699 | -0.727
NSUN5 (UniProt Q96P11) | 0.469 | -0.155 | 0.136
ITPR3 (UniProt Q14573) | -1.24 | -0.526 | -0.418
ATE1 (UniProt O95260) | 0.315 | -0.209 | -2.08
LIMCH1 (UniProt Q9UPQ0) | 0.0623 | 0.151 | 0.542
FBXO7 (UniProt Q9Y3I1) | -0.692 | -0.573 | -0.35
CYFIP2 (UniProt Q96F07) | 0.325 | 0.825 | 0.312
KIF1C (UniProt O43896) | -0.00389 | 0.0165 | -0.086
RPS10 (UniProt P46783) | 0.895 | 0.406 | -0.422
RPS7 (UniProt P62081) | 0.514 | 0.322 | -0.493
SH3GLB1 (UniProt Q9Y371) | -0.179 | -0.0481 | 0.658
ZYG11B (UniProt Q9C0D3) | -0.0727 | -0.16 | -0.142
IPO13 (UniProt O94829) | -0.112 | -0.218 | -0.159
TYMP (UniProt P19971) | 0.856 | 0.677 | 0.13
FASN (UniProt P49327) | 0.217 | 0.252 | -1.1
SNX15 (UniProt Q9NRS6) | -0.412 | 0.114 | 0.121
HIST1H1B (UniProt P16401) | 1.01 | 0.679 | 1.19
